Legend:
HT-29 cells = experiment: Cytotoxicity, XTT viability assay, HT-29
Procedure: (§1) The cytotoxicity assay was performed to evaluate the effect of the selected compounds on human cells. Colon cells were used because they are cell lines like those present in the microenvironment where G. lamblia colonizes, which is the small intestine of the host. The assay was performed using the human cell lines Caco-2 (ATCC HTB-37) and HT-29 (ATCC […]). Cell viability was determined using the Cell Proliferation Kit II (XTT, St. Louis, MO, EE. UU.). A cell suspension of 2 × 10^3 cells/mL was prepared in Dulbecco’s modified Eagle’s medium (DMEM) supplemented with 10% inactivated fetal bovine serum and an antibiotic (1% penicillin/streptomycin, 5000 U/mL, in a volume of 100 µL). The suspension was added to a 96-well plate. The plates were incubated for 24 h at 37 °C in a 5% CO2 atmosphere. […] The cells were incubated for 48 h at 37 °C in a 5% CO2 atmosphere. Cell viability was determined using the following steps. The medium in each well was replaced with 100 µL of fresh medium, and 50 µL of XTT labeling mix was added per well. The reaction was incubated for four hours at 37 °C and 5% CO2. After incubation, the absorbance of the samples on the plate was measured at 450 nm. Each compound was assayed in triplicate in three independent experiments. CC50 values (μM) were determined using the nonlinear regression function of GraphPad Prism version 8 for Windows.

[1] = Cytotoxicity, XTT viability assay, HT-29; conditions: human, HT-29 cells, CC50 HT-29, 48 h, XTT
Procedure: as §1

[2] = system: G. lamblia strain ATCC 30957; experiment: Viability of Giardia lamblia trophozoite culture (trypan blue count); assay type: cell-based
Procedure: Viability analysis was performed on G. lamblia strain ATCC 30957 grown in TYI-S-33 medium supplemented with 10% fetal bovine serum (FBS) and an antibiotic. Pre-culture was performed in 16 × 150 mm borosilicate tubes with a medium inoculated with 2 × 10^5 trophozoites and incubated at 37 °C for 48 h. For the recovery of the trophozoites, the vial was incubated in ice for 8 min and centrifuged for 6 min at 2000 rpm. The concentrated trophozoites were suspended in 1 mL of phosphate-buffered saline (PBS), and the number of trophozoites was counted by placing a 1:1 volume ratio of cell culture and trypan blue dye (4 g/L); then, a homogeneous drop of the mixture was taken and placed in the Neubauer chamber, and the total cells were counted.
The curves were plotted for concentrations of 0–50 µM of each compound. The assay was performed by placing 1.5 × 10^5 cells in 1.5 mL microcentrifuge tubes with a supplemented medium and different concentrations of each compound (0–50 µM). The negative control was performed under the same conditions without a compound, and the drugs NTZ and MTZ were used as positive controls. The samples were incubated for 48 h at 37 °C. At the end of the incubation, the cell viability count was performed using the trypan blue technique. The viability calculation was performed following the formula nv/(nv + nm), where nv represents the live cells and nm represents the dead cells; the viability value obtained was expressed as a percentage. The IC50 value of each compound was determined using the IC50 Calculator software (https://www.aatbio.com/tools/ic50-calculator).

Caco-2 cells = experiment: Cytotoxicity, XTT viability assay, Caco-2; conditions: read-out: CC50 Caco-2; 48 h, XTT
Procedure: as §1

[3] = Cytotoxicity, XTT viability assay, Caco-2; conditions: human
Procedure: as §1

[4] = system: Giardia lamblia trophozoites (strain ATCC 30957) gene expression; experiment: Gene expression in trophozoites by RT-qPCR; assay type: cell-based; conditions: IC50 of each compound, 48 h
Procedure: To determine the alterations in the parasite’s metabolism and cellular processes induced by the compounds, the expression levels of various genes encoding metabolic, structural, and oxidative stress response proteins were evaluated. G. lamblia strain ATCC 30957 was grown by following previously established culture parameters.
The culture tube was incubated on ice for 15 min and then centrifuged at 2000 rpm for 6 min to concentrate the cell pellet. Cell counting was performed using the trypan blue method. A 500 µL volume of Trizol ® was added, and it was gently homogenized; then, 60 µL of chloroform was added, and it was homogenized for 10 s with a vortex and incubated on ice for 3 min. Afterward, it was centrifuged at 12,000 rpm for 10 min, the aqueous phase was transferred to a new tube, 200 µL of isopropanol was added, and it was incubated for 3 h on ice. The sample was then centrifuged for 10 min at 12,000 rpm, and the supernatant was discarded. A 600 µL volume of ethanol (70%) was added, homogenized, and centrifuged. In the end, the supernatant was removed, and the sample was centrifuged again to dry the excess alcohol. The pellet was dried. Finally, it was resuspended in 25 µL of sterile MilliQ water. The concentration and purity of the extracted RNA were determined using the NanoDrop® Spectrophotometer ND-1000 (NanoDrop Technologies, Wilmington, DE, USA). […] RNA purity and integrity were confirmed using 0.8% (w/v) agarose gels under denaturing conditions.
The synthesis of cDNA was carried out with […] of purified RNA, and 1 U of […] was added (Thermo Thermo Fisher Scientific, Waltham, MA, USA). First-strand cDNA synthesis was carried out using 1 μg of DNase-treated RNA, combined with a 10 mM dNTP mix, oligo(dT)18 primer, and RevertAid reverse transcriptase (Thermo Scientific) in a final reaction volume of 20 μL. The reaction mixture was incubated at 42 °C for 60 min, followed by heat inactivation at 70 °C for 10 min. The synthesized cDNA was stored at −20 °C until further use. The level of purity and concentration of the cDNA were determined using the NanoDrop® Spectrophotometer ND-1000 (NanoDrop Technologies, Wilmington, DE, USA).
Specific oligonucleotides were designed to determine the expression levels of the gene’s phosphofructokinase, pyruvate kinase, glucose-6-phosphate dehydrogenase::6-phosphogluconolactonase, 6-phosphogluconate dehydrogenase, and transketolase. The design was based on gene sequences available in the National Center for Biotechnology Information (NCBI) database, adhering to the following criteria: an oligonucleotide length of 18–20 bp, a melting temperature (Tm) of 61 °C, a GC content of approximately 40%, and an amplicon size between 80 and 200 bp (Table 4). The oligonucleotides were synthesized by the Sequencing and Synthesis Unit of the Institute of Biotechnology, UNAM.
Additionally, previously reported primers that were used for the gene expression analysis of G. lamblia were also obtained (Table 4). These primers target genes encoding surface structural protein, giardin, actin, pyruvate:ferredoxin oxidoreductase, pyruvate phosphate dikinase, NADH oxidase, triose phosphate isomerase, glyceraldehyde-3-phosphate dehydrogenase, and Aldolase.
Amplification was performed using a StepOne™ Real-Time PCR System and the Fast SYBR® Green Master Mix kit (Applied Biosystems, Foster City, CA, USA) under the following conditions: an initial denaturation at 95 °C for 30 s, followed by 40 cycles of 95 °C for 3 s and 60 °C for 30 s. The melt curve analysis was conducted post-amplification by gradually increasing the temperature from 60 °C to 95 °C. […] Normalization was performed using the geometric mean of cycle threshold (Ct) values, and the relative expression levels of the target genes were calculated using the 2^−ΔΔCt method. Each reaction was performed in five replicates for all analyzed genes and strains. Results are presented as mean values ± standard deviation (SD).

Caco-2 and HT-29 cells = experiment: Cytotoxicity, XTT viability assay, stated for both cell lines; assay type: cell-based, human; conditions: 125 µM, 48 h
Procedure: The suspension was added to a 96-well plate. […] Cell viability was determined using the following steps.

[5] = system: G. lamblia strain resistant to nitazoxanide; experiment: Giardicidal activity in nitazoxanide-resistant strain (trypan blue count); assay type: cell-based; conditions: Giardia duodenalis, 48 h, read-out: IC50 G. lamblia (NTZ Resistant)
Procedure: A pre-culture at confluence was used as a starting point, and a concentration–response curve was plotted using an initial compound concentration of 25 μM in a final volume of 1.5 mL of TYI-S-33 medium, followed by serial dilutions of the compound. Each treatment was inoculated with 1.5 × 10^5 trophozoites and incubated for 48 h at 37 °C. At the end of the incubation, the number of trophozoites was determined using the trypan blue assay and by counting in a Neubauer chamber. The viability percentage at each compound concentration was calculated using the negative control as a reference.

[6] = system: G6PD::6PGL enzyme of G. lamblia; conditions: cited from earlier work
[7] = ratio of IC50 values, ATCC strain

## COc1cccc(C(=O)Nc2ncc([N+](=O)[O-])s2)c1 [FLP-6, 3-Methoxy-N-(5-nitro-1,3-thiazol-2-yl)benzamide]
HT-29 cells; CC50 HT-29 / IC50 trophozoite ATCC strain 30957
  Selectivity index (CC50/IC50) HT-29: 411
HT-29 cells; read-out: CC50 HT-29, 48 h, XTT
  CC50: 115 µM
[1]
  CC50 at 48 h: 115 µM
[2]; 25 µM
  Decrease of parasite viability: 100%
[2]; concentration not given
  Inhibition of growth of G. lamblia parasite culture: more than 98%
[2]; [7]
  Relative potency compared with MTZ: 12 times
  Relative potency compared with NTZ: 15 times
Caco-2 cells
  CC50: 178 µM
[3]; Caco-2
  selectivity ratio at 48 h: 636
[3]; Caco-2, CC50 Caco-2, 48 h, XTT
  CC50 at 48 h: 178 µM
[4]
  ACT (actin) gene expression, increase vs control: 2.5 times
  G6PD::6PGL gene expression vs control: 35 fold change
  GIA (giardin) gene expression, increase vs control: 2.6 times
  PFK gene expression vs control: 2.3 fold change
  TKT gene expression, decrease vs control: 1.2 times
  VSP gene expression, increase vs control: 5.9 times
Caco-2 and HT-29 cells
  Decrease of cell viability: up to 30%
[5]
  IC50: 0.54 µM
[6]
  Inhibition of the G6PD::6PGL enzyme (in words): not inhibitors of the enzyme

— paper PMC12111156, “Nitazoxanide Analogs: Synthesis, In Vitro Giardicidal Activity, and Effects on Giardia lamblia Metabolic Gene Expression” (International Journal of Molecular Sciences, 2025)
